Reference: US20110009628A1, “Compounds and Compositions for Modulating Lipid Levels and Methods of Preparing Same” (priority 2009, published 2011)
Structures can show the parent of a compound that is named as a salt.

How the values were obtained:
in vivo = assay: in vivo; parameters: species or system Golden Syrian hamsters; details: hamster, po
Procedure: For testing the efficacy of Compound 141 (phosphate salt of Compound 127) or its enantiomers (Compound 162/Compound 163) the following suspension formulation procedure was developed to make 100 ml of Compound 141 in suspension at 10 mg/ml concentration in 0.1 M tartaric buffer pH. 3 containing 0.5% hydroxypropylcellulose H-type (HPC-H):
Step 1: 1.50 g L-(+)-tartaric acid was dissolved in 100 mL water to prepare a tartaric acid solution. The solution was adjusted to pH 3 with 1.2 mL 5N NaOH solution to provide the tartaric acid buffer (100 mM). Step 2: 0.5 g HPC-H powder was added to 10 mL tartaric acid buffer (100 mM) at 50° C. The slurry was stirred for 30 minutes, and then diluted with 90 mL tartaric acid buffer (100 mM) at room temperature to provide 0.5% HPC-H. Agitation was continued until all particles were dissolved and the solution was completely free of gels. Step 3: 1.20 g Compound 141 (or Compound 162 or Compound 163) and 1.20 g mannitol were mixed and ground through a 120 mesh sieve, then the mixture was ground slightly again. The mixture was dispersed in 100 mL 0.5% HPC-H-L-(+)-Tartaric acid buffer (pH=3), then stirred until the drug dispersed evenly. The final pH was 2.6. All the above procedures were completed at room temperature (˜25° C.). The final concentration of Compound 141 was 10 mg/ml after correction of the salt weight.
The pharmacokinetic profile and bioavailability of Compound 141 (phosphate salt of Compound 127) in male Wistar rats following single intravenous (iv) and oral administration (p.o.) were measured according to the procedures of Example 4 and are summarized in Table 11. The pharmacokinetic profile of Compound 162 in male Golden Syrian masters following oral administration (pox) is summarized in Table 12.

[1] = tested on: LDLR mRNA expression in HepG2 cells; assay: LDLR mRNA expression in HepG2 cells, Compounds 162 and 163, real-time RT-PCR (Example 13); type: cell-based, human; details: FIGS. 6A and 6B
Procedure: In FIG. 6A HepG2 cells were exposed to Compounds 162 and 163 at the indicated concentrations (x-axis) for 24 h and plotted against normalized LDLR mRNA levels (fold of control in absence of compound). In FIG. 6B, HepG2 cells were treated with 20 μM of each compound for the indicted times (x-axis) and plotted against normalized LDLR mRNA levels (fold of control at 24 h).
The time- and dose-dependent effects of the enantiomers of Compound 127 (Compounds 162 and 163) on LDLR mRNA expression were examined using quantitative real-time RT-PCR assays (FIGS. 6A and 6B). HepG2 cells were treated with Compound 162 and Compound 163 at indicated concentrations for various times. Total RNA was isolated and […] was used to generate cDNA in a reaction containing random primers and M-MLV at 37° C. for 1 h in a volume of 25 μL. Real-time PCR was performed on the cDNA using MCEP REALPLEX 2 SYSTEM (Eppendorf) and Universal MasterMix (Applied Biosystems). Human LDLR and GAPDH Pre-Developed TaqMan Assay Reagents (Applied Biosystems) were used to assess the levels of mRNA expressions in HepG2. The levels of LDLR mRNA were normalized to that of GAPDH. Each RNA samples was assayed in triplicate. The fold activity was calculated by dividing mRNA abundance in compound treated cells with that of control.

[2] = tested on: PCSK9 protein expression in HepG2 cells; assay: Western blot of PCSK9 protein in HepG2 cells, Compounds 162 and 163; type: cell-based, human; details: 20 μM, time-dependent, FIG. 7
Procedure: (§1) FIG. 7 is a Western blot analysis of LDLR and PCSK9 expression in HepG2 cells. HepG2 cells seeded in 12-well culture plates were cultured in 0.5% FBS MEM overnight. Compounds 162 and 163 at 20 μM were added to cells for the indicated times. Untreated and treated cells were harvested at the same indicated time points. Total cell lysates were isolated and 50 μg per sample was analyzed for LDLR and PCSK9 protein abundance by western blotting. The membrane was reprobed with anti-actin antibody to examine the equal loading of cell lysates.
Recent studies have identified the liver secreted serine protease PCSK9 (proprotein convertase subtilisin type 9) as a natural inhibitor of LDLR protein expression that degrades hepatic LDLR protein, thus increasing circulating LDL-C levels.

[3] = tested on: LDLR protein expression in HepG2 cells; assay: Western blot of LDLR protein in HepG2 cells, Compounds 162 and 163; type: cell-based, human; details: 20 μM, 16 or 24 hours, FIG. 7
Procedure: as §1
Chicken anti-LDLR was purchased from Abcam. HepG2 cells cultured in 60-mm dishes were incubated overnight in medium containing 0.5% fetal bovine serum prior to the addition of compounds at 20 μM concentration. After 16 or 24 hours of treatment, total cell lysate was isolated and 50 μg of protein was separated on SDS-PAGE and transferred to nitrocellulose membrane for immunoblotting with anti-LDLR.

[4] = tested on: intracellular triglyceride in HepG2 cells; assay: Reduction of intracellular triglyceride in HepG2 cells (Example 8); type: cell-based, human; details: B, compound dose ≦40 μM
Source text: Berberine chloride was used for comparison. The amount of TG in untreated control cells was defined as 100% and the amounts of TG in compound-treated cells were divided to that value.

[5] = tested on: LDLR mRNA expression in HepG2 cells; assay: LDLR mRNA expression in HepG2 cells, simvastatin versus compound 91 (Example 10); type: cell-based, human; details: 24 hours, FIG. 4A
Procedure: (§2) In yet another experiment, HepG2 cells were treated with various compounds for 24 hours at the indicated doses. Total RNA was isolated and 2 μg was used to generate cDNA in a reaction containing random primers and M-MLV at 37° C. for 1 hour in a volume of 25 μL. Real-time PCR was performed on the cDNA using MCEP REALPLEX 2 SYSTEM (Eppendorf) and Universal MasterMix (Applied Biosystems). Human LDLR and GAPDH Pre-Developed TaqMan Assay Reagents (Applied Biosystems) were used to assess the levels of mRNA expressions in HepG2. The levels of LDLR mRNA were normalized to that of GAPDH. Each RNA samples was assayed in triplicate. The abundance of LDLR mRNA in untreated cells was defined as 1, and the amounts of LDLR mRNA from compound-treated cells were plotted relative to that value in FIG. 2B. The data shown are mean±s.d.
(§3) Total RNA was harvested for quantitative real-time RT-PCR analysis using method described in Examples 5B. The fold activity was derived by dividing the amount of normalized LDLR or PCSK9 mRNA in compound-treated cells over the amount of LDLR or PCSK9 mRNA in untreated control cells.

[6] = tested on: LDLR mRNA expression in HepG2 cells; assay: LDLR mRNA expression in HepG2 cells, quantitative real-time RT-PCR (Example 7); type: cell-based, human; details: dose less than or equal to 10 μM, 24 hours
Summary of the method: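 LDLR mRNA quantified by TaqMan real-time PCR in triplicate, normalized to GAPDH and expressed relative to untreated cells set at 1 (mean±s.d.).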

[7] = tested on: PCSK9 mRNA expression in HepG2 cells; assay: PCSK9 mRNA expression in HepG2 cells, simvastatin versus compound 91 (Example 10); type: cell-based, human; details: 24 hours, FIG. 4B
Procedure: as §2, §3

Row | Compound | pharmacokinetic properties and bioavailability, in words (in vivo) | LDLR mRNA expression [1] | PCSK9 cellular levels [2] | LDLR mRNA and protein expression [3] | Activity on reduction of cellular TG accumulation (% of control) [4] | LDLR mRNA expression [5] | Activity on LDLR mRNA expression (Fold of control) [6] | PCSK9 mRNA expression [7]
1 | COc1cc2c(cc1OC)C1Cc3ccc(OC)c(OS(=O)(=O)c4cccc(F)c4)c3CN1CC2 (single isomer, unassigned) [Compound 163, 2,3,10-Trimethoxy-5,6,7,8,13,13a-hexahydroisoquinolin[2,1-b]isoquinolin-9-yl 3-fluorobenzenesulfonate phosphate Salt (Enantiomer having negative optical rotation)] | excellent pharmacokinetic properties and good bioavailability | upregulate LDLR mRNA expression | greatly decreased | significantly enhance |  |  |  | 
2 | COc1cc2c(cc1OC)C1Cc3ccc(OC)c(OS(=O)(=O)c4ccccc4)c3CN1CC2 (centres unmarked) [Compound 91, 2,3,10-trimethoxy-5,6,7,8,13,13a-hexahydroisoquinolino[2,1-b]isoquinolin-9-yl benzenesulfonate] |  |  |  |  | 71.17 ± 2.23 % of control | dose-dependently increases | 3.77 ± 0.20 Fold of control | inhibits
